Reference: ChEMBL document CHEMBL3508693 (2016)

Assays:
[1] = Concentration of radioactivity in the brown fat following repeated oral administration of [14C] aliskiren hemifumarate at 100 mg.Kg-1 level studied at 24h after 7th dose in rat; type: ADME, organism-based, Albino HAN:WIST, Brown adipose tissue; settings: in vivo
[2] = Mean excretion of radioactivity (0-96h) in urine and faeces following single intravenous dose of 10 mg.Kg-1 [14C] aliskiren hemifumarate in rat; type: ADME, organism-based, Albino HAN:WIST, Urine/Feces; settings: in vivo
[3] = Concentration of radioactivity in the kidney medulla following repeated oral administration of [14C] aliskiren hemifumarate at 100 mg.Kg-1 level studied at 24h after 10th dose in rat; type: ADME, organism-based, Albino HAN:WIST, Renal medulla; settings: in vivo
Cytochrome P450 2E1 = Cytochrome P450 2E1 (Homo sapiens, UniProt P05181); experiment: Metabolic clearance (ul.min.nmol-1 CYP) of aliskiren hemifumarate for CYP2E1 was determined in human liver microsome incubated with [14C]SPP100 hemifumarate; type: ADME; settings: microsomes
[4] = Excretion (0-168h) of radioactivity in urine following oral administration of [14C] aliskiren hemifumarate at 3 mg.Kg-1 level in marmoset; type: ADME, organism-based, Callithrix jacchus; settings: in vivo
[5] = Excretion of radioactivity (24-48h) in urine following single oral dose of 100 mg.Kg-1 [14C] aliskiren hemifumarate in rat; type: ADME, organism-based, Albino HAN:WIST; settings: in vivo
[6] = Elimination (0-96h) of radioactivity via biliary route following oral administration of [14C] aliskiren hemifumarate at 100 mg.Kg-1 level in rat; type: ADME, organism-based, Albino HAN:WIST, Bile; settings: in vivo
[7] = Effect of single oral dose of 300 mg [14C]SPP100 on ECG values studied in healthy men; type: toxicity, organism-based; settings: human, in vivo
[8] = Cmax of [14C] aliskiren hemifumarate following single intravenous dose of [14C] aliskiren hemifumarate at 10 mg.Kg-1 level in mouse; type: ADME, organism-based, TgRasH2, Plasma; settings: in vivo
[9] = Mean excretion of radioactivity (0-24h) in urine and faeces following single intravenous dose of 10 mg.Kg-1 [14C] aliskiren hemifumarate in rat; type: ADME, organism-based, Albino HAN:WIST, Urine/Feces; settings: in vivo
[10] = % of radioactivity (24h) recovered in faeces following single intravenous administration of 10 mg.Kg-1 [14C] aliskiren hemifumarate in male rat; type: ADME, organism-based, HAN:WIST(SPF), Feces; settings: in vivo
[11] = Excretion (24h) of radioactivity in faeces following oral administration of [14C] aliskiren hemifumarate at 100 mg.Kg-1 level in rat; type: ADME, organism-based, Lister-Hooded, Feces; settings: in vivo
[12] = Concentration of radioactivity in the liver following repeated oral administration of [14C] aliskiren hemifumarate at 100 mg.Kg-1 level studied at 2h after 3rd dose in rat; type: ADME, organism-based, Albino HAN:WIST; settings: in vivo
[13] = Excretion (0-24h) of radioactivity in faeces following intravenous administration of [14C] aliskiren hemifumarate at 1 mg.Kg-1 level in marmoset; type: ADME, organism-based, Callithrix jacchus, Feces; settings: in vivo
[14] = Terminal elimination half-life of SPP100 following single oral dose of SPP100 600 mg capsule studied in healthy human; type: ADME, organism-based; settings: plasma
[15] = Oral clearance of SPP100 following single oral dose of SPP100 600 mg capsule studied in healthy human; type: ADME, organism-based; settings: plasma
CYP2C19 [16] = biological target: T1, CYP2C19 (Homo sapiens, UniProt P33261); experiment: Inhibitory activity of 200 uM SPP100 on 1156 Pmoles of cDNA-derived CYP2C19 enzyme in microsome prepared from human lymphoblastoid cell line; type: ADME, microsomes; design: conc 200 uM, interact cpd conc 50 uM; settings: probe (S)-mephenytoin (50 uM)
[17] = Terminal elimination half-life of SPP100 following single oral dose of SPP100 150 mg capsule studied in healthy human; type: ADME, organism-based; settings: plasma
CYP2C19 [18] = biological target: T1, CYP2C19; experiment: Inhibitory activity of 20 uM SPP100 on 1174 Pmoles of cDNA-derived CYP2C19 enzyme in microsome prepared from human lymphoblastoid cell line; type: ADME, microsomes; design: conc 20 uM, interact cpd conc 50 uM; settings: probe (S)-mephenytoin
CYP1A2 = biological target: T2, CYP1A2 (Homo sapiens, UniProt P05177); experiment: Inhibitory activity of 20 uM SPP100 on 502 Pmoles of cDNA-derived CYP1A2 enzyme in microsome prepared from human lymphoblastoid cell line; type: ADME, microsomes; design: conc 20 uM, interact cpd conc 50 uM; settings: probe phenacetin
T2 sequence (P05177 whole entry): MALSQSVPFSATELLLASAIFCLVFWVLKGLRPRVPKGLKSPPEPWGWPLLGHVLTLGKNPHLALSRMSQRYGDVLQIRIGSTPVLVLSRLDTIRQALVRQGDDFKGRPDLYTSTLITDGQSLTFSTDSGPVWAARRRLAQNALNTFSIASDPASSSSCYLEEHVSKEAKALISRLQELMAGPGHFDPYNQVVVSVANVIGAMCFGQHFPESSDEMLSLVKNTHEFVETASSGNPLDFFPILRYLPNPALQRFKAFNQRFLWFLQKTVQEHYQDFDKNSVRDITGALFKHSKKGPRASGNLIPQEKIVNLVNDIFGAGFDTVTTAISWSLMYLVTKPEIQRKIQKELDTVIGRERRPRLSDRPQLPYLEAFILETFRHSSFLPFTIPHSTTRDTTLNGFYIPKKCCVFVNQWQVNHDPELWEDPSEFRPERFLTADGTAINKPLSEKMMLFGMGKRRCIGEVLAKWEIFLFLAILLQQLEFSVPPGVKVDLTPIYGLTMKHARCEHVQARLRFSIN

[19] = Cmaxspec of aliskiren hemifumarate following 2 week oral dosing of aliskiren hemifumarate at 10 mg.Kg-1 level studied on day 1 in female Callithrix jacchus; type: ADME, organism-based, Plasma; settings: marmoset, in vivo, 336 h
[20] = Cmax/dose of aliskiren hemifumarate following 4 week oral dietary dosing of aliskiren hemifumarate at 1500 mg.Kg-1 level in female mouse; type: ADME, organism-based, CB6F1-TGrasH2; settings: in vivo, 672 h
[21] = Plasma clearance (0-168h) of unlabeled aliskiren hemifumarate following single intravenous administration of aliskiren hemifumarate at 1 mg.Kg-1 level in marmoset; type: ADME, organism-based, Callithrix jacchus; settings: in vivo
[22] = Cmaxspec of aliskiren hemifumarate following 2 week oral dosing of aliskiren hemifumarate at 10 mg.Kg-1 level studied on day 1 in male Callithrix jacchus; type: ADME, organism-based, Plasma; settings: marmoset, in vivo, 336 h
[23] = Cmax/dose (0-96h) of unlabeled aliskiren hemifumarate following intravenous administration of aliskiren hemifumarate at 10 mg.Kg-1 level in rat; type: ADME, organism-based, Albino HAN:WIST, Plasma; settings: in vivo
[24] = Tmax of aliskiren hemifumarate following single dosing of SPP100B oral solution at 640 mg level studied on day 1 in men; type: ADME, organism-based; settings: male, human, plasma
[25] = Effect of 2 week oral dosing of aliskiren hemifumarate at 50 mg.Kg-1 level on plasma magnesium level in female Callithrix jacchus; type: toxicity, organism-based; settings: marmoset, 336 h
[26] = AUC(0-24h) of aliskiren hemifumarate following 2 week oral dosing of aliskiren hemifumarate at 100 mg.Kg-1 level studied on day 14 in male Callithrix jacchus; type: ADME, organism-based; settings: marmoset, plasma
[27] = Cmax of aliskiren hemifumarate following 2 week oral dosing of aliskiren hemifumarate at 50 mg.Kg-1 level studied on day 1 in female Callithrix jacchus; type: ADME, organism-based; settings: marmoset, plasma
[28] = AUC of aliskiren hemifumarate following single dosing of SPP100B oral solution at 80 mg level studied on day 1 in men; type: ADME, organism-based; settings: male, human, plasma
[29] = Cmax of aliskiren hemifumarate following 2 week oral dosing of aliskiren hemifumarate at 10 mg.Kg-1 level studied on day 14 in female Callithrix jacchus; type: ADME, organism-based; settings: marmoset, plasma
[30] = AUC(0-24h) of aliskiren hemifumarate following 2 week oral dosing of aliskiren hemifumarate at 50 mg.Kg-1 level studied on day 1 in female Callithrix jacchus; type: ADME, organism-based; settings: marmoset, plasma
[31] = Tmax of aliskiren hemifumarate following 8 day once-daily dosing of SPP100B oral solution at 80 mg level studied on day 8 in men; type: ADME, organism-based; settings: male, human, plasma
[32] = Effect of 2 week oral dosing of aliskiren hemifumarate at 100 mg.Kg-1 level on hematological parameter values in female Callithrix jacchus; type: toxicity, organism-based, Plasma; settings: marmoset, in vivo, 336 h

T1 sequence (P33261 whole entry): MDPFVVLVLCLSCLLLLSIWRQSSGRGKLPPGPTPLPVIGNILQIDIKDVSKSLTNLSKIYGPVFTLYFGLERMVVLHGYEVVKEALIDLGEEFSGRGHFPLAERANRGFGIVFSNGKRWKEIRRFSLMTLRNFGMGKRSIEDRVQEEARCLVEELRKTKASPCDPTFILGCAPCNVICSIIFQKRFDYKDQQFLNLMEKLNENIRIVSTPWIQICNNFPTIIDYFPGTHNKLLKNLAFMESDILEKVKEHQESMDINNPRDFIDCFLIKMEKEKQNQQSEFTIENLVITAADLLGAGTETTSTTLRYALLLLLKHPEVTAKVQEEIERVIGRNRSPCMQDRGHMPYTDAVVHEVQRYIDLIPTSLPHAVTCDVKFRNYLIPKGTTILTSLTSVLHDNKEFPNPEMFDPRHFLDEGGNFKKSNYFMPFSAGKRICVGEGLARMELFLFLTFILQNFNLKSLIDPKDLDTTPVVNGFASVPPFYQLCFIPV
Cytochrome P450 2E1, sequence (P05181 whole entry): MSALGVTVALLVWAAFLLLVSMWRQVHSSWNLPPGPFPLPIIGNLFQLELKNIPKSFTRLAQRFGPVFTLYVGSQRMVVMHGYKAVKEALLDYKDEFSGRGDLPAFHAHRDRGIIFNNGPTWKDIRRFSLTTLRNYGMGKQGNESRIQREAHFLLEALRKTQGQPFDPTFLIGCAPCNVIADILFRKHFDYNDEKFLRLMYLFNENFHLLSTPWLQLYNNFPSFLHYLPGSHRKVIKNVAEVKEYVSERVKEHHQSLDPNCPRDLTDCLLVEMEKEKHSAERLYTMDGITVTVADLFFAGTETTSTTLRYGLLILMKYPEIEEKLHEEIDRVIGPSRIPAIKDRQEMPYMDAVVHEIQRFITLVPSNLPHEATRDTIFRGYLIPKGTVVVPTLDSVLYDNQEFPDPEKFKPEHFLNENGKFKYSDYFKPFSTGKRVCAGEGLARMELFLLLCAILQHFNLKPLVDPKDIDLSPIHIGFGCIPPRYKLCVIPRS

COCCCOc1cc(C[C@@H](C[C@H](N)[C@@H](O)C[C@H](C(=O)NCC([14CH3])([14CH3])C(N)=O)C(C)C)C(C)C)ccc1OC.O=C(O)/C=C/C(=O)O
Radiolabel recovery [1]: OUTCOME = Detected
Radiolabel recovery [2]: 94.8%
Radiolabel recovery [3]: OUTCOME = Detected
CL (Cytochrome P450 2E1): 1.4 µL·min/nmol
Radiolabel recovery [4]: 4.5%
Radiolabel recovery [5]: 0.17%
Radiolabel recovery [6]: OUTCOME = Observed/Elimination of radioactivity was mainly via biliary route
ECG [7]: OUTCOME = ECG findings were all considered as normal
Cmax [8]: 14.6 µM
Radiolabel recovery [9]: 58.6%
Radiolabel recovery [10]: 4.6%
Radiolabel recovery [11]: 86%
Radiolabel recovery [12]: OUTCOME = Detected
Radiolabel recovery [13]: 51.5%

COCCCOc1cc(C[C@@H](C[C@H](N)[C@@H](O)C[C@H](C(=O)NCC(C)(C)C(N)=O)C(C)C)C(C)C)ccc1OC
half-life [14]: 34 h
CL/F [15]: 3700 mL/min
inhibition at 200 µM (CYP2C19 [16]): 3%
half-life [17]: 41 h
inhibition at 20 µM (CYP2C19 [18]): -1.5%
inhibition at 20 µM (CYP1A2): 2.5%

COCCCOc1cc(C[C@@H](C[C@H](N)[C@@H](O)C[C@H](C(=O)NCC(C)(C)C(N)=O)C(C)C)C(C)C)ccc1OC.COCCCOc1cc(C[C@@H](C[C@H](N)[C@@H](O)C[C@H](C(=O)NCC(C)(C)C(N)=O)C(C)C)C(C)C)ccc1OC.O=C(O)/C=C/C(=O)O [ALISKIREN FUMARATE]
Cmax normalised [19]: 0.396 (ug/ml)/(mg/kg)
Cmax normalised [20]: 0.68 (ng/mL)/(mg/kg/day)
Plasma clearance [21]: 0.036 L·h/kg
Cmax normalised [22]: 0.396 (ug/ml)/(mg/kg)
Cmax normalised [23]: 2.92 (umol/L)/(mg/kg)
Tmax [24]: 2.1 h
Plasma magnesium_CHANGE_BY [25]: 130%
AUC at 24 h [26]: 109000 ng·h/mL
Cmax [27]: 8830 ng/mL
AUC [28]: 96.4 ng·h/mL
Cmax [29]: 6730 ng/mL
AUC(0-t) at 24 h [30]: 56200 ng·h/mL
Tmax [31]: 1.8 h
Change in hematology [32]: OUTCOME = Hematological parameter values did not differ from control values. No animals died during the study.
